# Activity calls are given as the source filed them. No cut-off for these calls is given here.
# What was measured:
# Pseudomonas aeruginosa [1] = experiment: Antimicrobial activity against Pseudomonas aeruginosa 26305 clinical isolates after 24 hrs by NCCLS-protocol based assay; assay type: functional; settings: Pseudomonas aeruginosa, 26305, 24 h
# Pseudomonas aeruginosa [2] = experiment: Antimicrobial activity against Pseudomonas aeruginosa 25349 clinical isolates after 24 hrs by NCCLS-protocol based assay; assay type: functional; settings: Pseudomonas aeruginosa, 25349, 24 h
# Salmonella typhimurium [3] = experiment: Antimicrobial activity against Salmonella typhimurium C7731 after 24 hrs by NCCLS-protocol based assay; assay type: functional, Salmonella enterica subsp. enterica serovar Typhimurium; settings: Salmonella enterica, C7731, 24 h
# Acinetobacter baumannii = experiment: Antimicrobial activity against Acinetobacter baumannii after 24 hrs by NCCLS-protocol based assay; assay type: functional
# HEK-293T = experiment: Cytotoxicity against HEK293T cells assessed as cell death after 18 to 24 hrs by MTT assay; assay type: cell-based; settings: Homo sapiens
# [4] = Cytotoxicity against IPECJ2 cells assessed as cell death after 18 to 24 hrs by MTT assay; assay type: cell-based; settings: Sus scrofa, IPEC-J2
# [5] = Selectivity ratio of HC10 for human RBC to geometric mean of the peptide MBC for bacteria
# [6] = Selectivity ratio of IC50 for HEK293T cells to geometric mean of the peptide MBC for bacteria
# [7] = Selectivity ratio of IC50 for pig IPECJ2 cells to geometric mean of the peptide MBC for bacteria
# Escherichia coli [8] = experiment: Bactericidal activity against Escherichia coli ATCC 25922 incubated for 4 hrs followed by culture spread on agar plates and cultured overnight in presence of NaCl; assay type: functional; settings: ATCC 25922, 4 h, read-out: MBC>99.9
# Escherichia coli [9] = experiment: Bactericidal activity against Escherichia coli ATCC 25922 incubated for 4 hrs followed by culture spread on agar plates and cultured overnight in presence of CaCl2; assay type: functional; settings: ATCC 25922, 4 h, read-out: MBC>99.9
# Escherichia coli [10] = experiment: Bactericidal activity against Escherichia coli ATCC 25922 incubated for 4 hrs followed by culture spread on agar plates and cultured overnight in presence of FeCl3; assay type: functional; settings: ATCC 25922, 4 h, read-out: MBC>99.9
# Escherichia coli [11] = experiment: Bactericidal activity against Escherichia coli ATCC 25922 incubated for 4 hrs followed by culture spread on agar plates and cultured overnight in presence of NH4Cl; assay type: functional; settings: ATCC 25922, 4 h, read-out: MBC>99.9
# Escherichia coli [12] = experiment: Bactericidal activity against Escherichia coli ATCC 25922 incubated for 4 hrs followed by culture spread on agar plates and cultured overnight in presence of MgCl2; assay type: functional; settings: ATCC 25922, 4 h, read-out: MBC>99.9
# Escherichia coli [13] = experiment: Bactericidal activity against Escherichia coli ATCC 25922 incubated for 4 hrs followed by culture spread on agar plates and cultured overnight in presence of 50% serum albumin; assay type: functional; settings: ATCC 25922, 4 h, read-out: MBC>99.9
# Escherichia coli [14] = experiment: Bactericidal activity against Escherichia coli ATCC 25922 incubated for 4 hrs followed by culture spread on agar plates and cultured overnight in presence of 2 mg/ml trypsin; assay type: functional; settings: ATCC 25922, 4 h, read-out: MBC>99.9
# Escherichia coli [15] = experiment: Bactericidal activity against Escherichia coli ATCC 25922 incubated for 4 hrs followed by culture spread on agar plates and cultured overnight in presence of 1 mg/ml trypsin; assay type: functional; settings: ATCC 25922, 4 h, read-out: MBC>99.9
# Escherichia coli [16] = experiment: Bactericidal activity against Escherichia coli ATCC 25922 incubated for 4 hrs followed by culture spread on agar plates and cultured overnight in presence of 1 mg/ml chymotrypsin; assay type: functional; settings: ATCC 25922, 4 h, read-out: MBC>99.9
# Escherichia coli [17] = experiment: Bactericidal activity against Escherichia coli ATCC 25922 incubated for 4 hrs followed by culture spread on agar plates and cultured overnight in presence of 0.25 mg/ml chymotrypsin; assay type: functional; settings: ATCC 25922, 4 h, read-out: MBC>99.9
# Escherichia coli [18] = experiment: Antibacterial activity against Escherichia coli ATCC 25922 infected in ICR mouse assessed as log reduction in bacterial cells in spleen at 5 mg/kg, ip administered at 5 mg/kg, ip dosed at 0.5, 2, 4 and 8 hrs post-infection; assay type: functional
# Escherichia coli [19] = experiment: Antibacterial activity against Escherichia coli ATCC 25922 infected in ICR mouse assessed as log reduction in bacterial cells in liver at 5 mg/kg, ip administered at 5 mg/kg, ip dosed at 0.5, 2, 4 and 8 hrs post-infection; assay type: functional
# Escherichia coli [20] = experiment: Bactericidal activity against Escherichia coli ATCC 25922 incubated for 4 hrs followed by culture spread on agar plates and cultured overnight in presence of 0.125 to 4 mg/ml proteinase K; assay type: functional, organism-based
# Escherichia coli [21] = experiment: Induction of cytoplasmic membrane depolarization in Escherichia coli ATCC 25922 at 2 uM up to 5000 secs by DiSC3-5 dye-based fluorescence spectrophotometric method; assay type: functional, organism-based
# Escherichia coli [22] = experiment: Bactericidal activity against Escherichia coli 078 incubated for 4 hrs followed by culture spread on agar plates and cultured overnight; assay type: functional; settings: Escherichia coli, 078, 4 h; read-out: MBC>99.9
# Pseudomonas aeruginosa [23] = experiment: Bactericidal activity against Pseudomonas aeruginosa ATCC 27853 incubated for 4 hrs followed by culture spread on agar plates and cultured overnight; assay type: functional; settings: ATCC 27853, 4 h, read-out: MBC>99.9
# Pseudomonas aeruginosa [24] = experiment: Bactericidal activity against Pseudomonas aeruginosa PAO1 incubated for 4 hrs followed by culture spread on agar plates and cultured overnight; assay type: functional; settings: PAO1, 4 h, read-out: MBC>99.9
# Pseudomonas aeruginosa [25] = experiment: Bactericidal activity against Pseudomonas aeruginosa 26305 clinical isolates incubated for 4 hrs followed by culture spread on agar plates and cultured overnight; assay type: functional; settings: Pseudomonas aeruginosa, 26305, 4 h; read-out: MBC>99.9
# Pseudomonas aeruginosa [26] = experiment: Bactericidal activity against Pseudomonas aeruginosa CICC 21625 clinical isolates incubated for 4 hrs followed by culture spread on agar plates and cultured overnight; assay type: functional; settings: CICC 21625, 4 h, read-out: MBC>99.9
# Pseudomonas aeruginosa [27] = experiment: Bactericidal activity against Pseudomonas aeruginosa 25349 clinical isolates incubated for 4 hrs followed by culture spread on agar plates and cultured overnight; assay type: functional; settings: Pseudomonas aeruginosa, 25349, 4 h; read-out: MBC>99.9
# Salmonella typhimurium [28] = experiment: Bactericidal activity against Salmonella typhimurium ATCC 14028 incubated for 4 hrs followed by culture spread on agar plates and cultured overnight; assay type: functional, Salmonella enterica subsp. enterica serovar Typhimurium; settings: Salmonella enterica, ATCC 14028, 4 h; read-out: MBC>99.9
# [29] = Hemolytic activity against human RBC at 1 to 128 uM after 1 hr; assay type: ADME, cell-based, Erythrocyte; settings: red blood cells (erythrocytes), read-out: Activity
# Trypsin = Trypsin (Homo sapiens, UniProt P07477+P07478+P35030); experiment: Stability of the compound assessed as trypsin (unknown origin)-mediated compound hydrolysis after 8 hrs by SDS-PAGE analysis; assay type: ADME, protein assay
# Chymotrypsin [30] = target: T1, Chymotrypsin (Homo sapiens, UniProt Q99895+P17538+P40313+Q6GPI1); experiment: Stability of the compound assessed as chymotrypsin (unknown origin)-mediated compound hydrolysis after 8 hrs by SDS-PAGE analysis; assay type: ADME, protein assay
# [31] = Stability of the compound assessed as Tritirachium album proteinase K-mediated compound hydrolysis after 8 hrs by SDS-PAGE analysis; assay type: ADME; settings: parengyodontium album
# [32] = Stability of the compound assessed as Tritirachium album proteinase K-mediated compound hydrolysis by measuring compound helicity by CD spectroscopy; assay type: ADME; settings: parengyodontium album
# Escherichia coli [33] = experiment: Induction of cytoplasmic membrane depolarization in Escherichia coli ATCC 25922 assessed as induction cytoplasmic ONPG release at 2 to 16 uM up to 120 mins by DiSC3-5 dye-based fluorescence spectrophotometric method; assay type: functional, organism-based
# Chymotrypsin [34] = target: T1, Chymotrypsin; experiment: Stability of the compound assessed as chymotrypsin (unknown origin)-mediated compound hydrolysis after 4 hrs by SDS-PAGE analysis; assay type: ADME, protein assay
# Chymotrypsin [35] = target: T1, Chymotrypsin; experiment: Stability of the compound assessed as chymotrypsin (unknown origin)-mediated compound hydrolysis by measuring compound helicity by CD spectroscopy; assay type: ADME, protein assay
# [36] = Stability of the compound assessed as pepsin (unknown origin)-mediated compound hydrolysis by measuring compound helicity by CD spectroscopy; assay type: ADME; settings: human
Substance,MIC95 (Pseudomonas aeruginosa [1]),MIC95 (Pseudomonas aeruginosa [2]),MIC95 (Salmonella typhimurium [3]),MIC95 (Acinetobacter baumannii),IC50 (HEK-293T),IC50 [4],Ratio [5],Ratio [6],Ratio [7],MBC (Escherichia coli [8]),MBC (Escherichia coli [9]),MBC (Escherichia coli [10]),MBC (Escherichia coli [11]),MBC (Escherichia coli [12]),MBC (Escherichia coli [13]),MBC (Escherichia coli [14]),MBC (Escherichia coli [15]),MBC (Escherichia coli [16]),MBC (Escherichia coli [17]),log(activity) (Escherichia coli [18]),other results
H-IRPIIRPIIRPIIRPIIRPIIRPIIRPI-NH2,32 µM,32 µM,1 µM,1 µM,324 µM,126 µM,51.5,65.19,25.25,8 µM,> 128 µM,2 µM,2 µM,2 µM,16 µM,2 µM,2 µM,2 µM,2 µM,1.6,"log(activity) (Escherichia coli [19]): 2; Activity (Escherichia coli [20]): Active; Activity (Escherichia coli [21]): Active; MBC (Escherichia coli [22]): 1 µM; MBC (Pseudomonas aeruginosa [23]): 8 µM; MBC (Pseudomonas aeruginosa [24]): 8 µM; MBC (Pseudomonas aeruginosa [25]): 64 µM; MBC (Pseudomonas aeruginosa [26]): 64 µM; MBC (Pseudomonas aeruginosa [27]): 32 µM; MBC (Salmonella typhimurium [28]): 2 µM; hemolysis at 1 h, up to 128 µM [29]: < 5%; Stability (Trypsin): Stable; Stability (Chymotrypsin [30]): Stable; Stability [31]: Stable; Stability [32]: Unstable; Activity (Escherichia coli [33]): Active"
H-LKPLLKPLLKPLLKPLLKPLLKPLLKPL-NH2,4 µM,8 µM,2 µM,1 µM,47.4 µM,24.4 µM,94.5,17.49,9.01,8 µM,> 128 µM,2 µM,1 µM,2 µM,64 µM,1 µM,1 µM,1 µM,1 µM,1,log(activity) (Escherichia coli [19]): 1; MBC (Escherichia coli [22]): 2 µM; MBC (Pseudomonas aeruginosa [23]): 2 µM; MBC (Pseudomonas aeruginosa [24]): 1 µM; MBC (Pseudomonas aeruginosa [25]): 16 µM; MBC (Pseudomonas aeruginosa [26]): 16 µM; MBC (Pseudomonas aeruginosa [27]): 8 µM; MBC (Salmonella typhimurium [28]): 2 µM; Stability (Trypsin): Stable; Stability (Chymotrypsin [34]): Unstable; Stability (Chymotrypsin [35]): Unstable; Stability [36]: Unstable
H-LRPLLRPLLRPLLRPLLRPLLRPLLRPL-NH2,2 µM,4 µM,2 µM,1 µM,19.2 µM,10.7 µM,24.7,7.42,4.11,4 µM,16 µM,2 µM,2 µM,2 µM,16 µM,2 µM,2 µM,> 64 µM,2 µM,1,log(activity) (Escherichia coli [19]): 1; MBC (Escherichia coli [22]): 1 µM; MBC (Pseudomonas aeruginosa [23]): 4 µM; MBC (Pseudomonas aeruginosa [24]): 2 µM; MBC (Pseudomonas aeruginosa [25]): 8 µM; MBC (Pseudomonas aeruginosa [26]): 8 µM; MBC (Pseudomonas aeruginosa [27]): 8 µM; MBC (Salmonella typhimurium [28]): 2 µM; Stability (Trypsin): Stable; Stability (Chymotrypsin [34]): Unstable; Stability (Chymotrypsin [35]): Unstable; Stability [36]: Unstable
